Measured values reported in patent US10344060B2 (priority 2013, dated 2019).
Several values for one entry are separate records, joined by “and”; a condition that tells them apart may be missing. Identical values can stand only once. Like-named read-outs stand apart in the source and are kept apart here.

Tests used:
Assay in all cases: cell-based
hNav1.5 = hNav1.5 (Homo sapiens, UniProt Q14524); settings: read-out: IC50 (μM) Nav1.5
hNav1.3 = hNav1.3 (Homo sapiens, UniProt Q9NY46); settings: read-out: IC50 (μM) Nav1.3
hNav1.7 [1] = target: T1, hNav1.7 (Homo sapiens, UniProt Q15858); type: cell-based; settings: ratio of PX tonic IC50 values; Table 11
hNav1.4 = hNav1.4 (Homo sapiens, UniProt P35499); type: cell-based; settings: for IC50: read-out: IC50 (μM) Nav1.4; for Nav1.4/Nav1.7: ratio of IonWorks Quattro IC50 values
hNav1.7 [2] = target: T1, hNav1.7; settings: for IC50: read-out: IC50 (μM) Nav1.7

hNav1.4, sequence (P35499 whole entry): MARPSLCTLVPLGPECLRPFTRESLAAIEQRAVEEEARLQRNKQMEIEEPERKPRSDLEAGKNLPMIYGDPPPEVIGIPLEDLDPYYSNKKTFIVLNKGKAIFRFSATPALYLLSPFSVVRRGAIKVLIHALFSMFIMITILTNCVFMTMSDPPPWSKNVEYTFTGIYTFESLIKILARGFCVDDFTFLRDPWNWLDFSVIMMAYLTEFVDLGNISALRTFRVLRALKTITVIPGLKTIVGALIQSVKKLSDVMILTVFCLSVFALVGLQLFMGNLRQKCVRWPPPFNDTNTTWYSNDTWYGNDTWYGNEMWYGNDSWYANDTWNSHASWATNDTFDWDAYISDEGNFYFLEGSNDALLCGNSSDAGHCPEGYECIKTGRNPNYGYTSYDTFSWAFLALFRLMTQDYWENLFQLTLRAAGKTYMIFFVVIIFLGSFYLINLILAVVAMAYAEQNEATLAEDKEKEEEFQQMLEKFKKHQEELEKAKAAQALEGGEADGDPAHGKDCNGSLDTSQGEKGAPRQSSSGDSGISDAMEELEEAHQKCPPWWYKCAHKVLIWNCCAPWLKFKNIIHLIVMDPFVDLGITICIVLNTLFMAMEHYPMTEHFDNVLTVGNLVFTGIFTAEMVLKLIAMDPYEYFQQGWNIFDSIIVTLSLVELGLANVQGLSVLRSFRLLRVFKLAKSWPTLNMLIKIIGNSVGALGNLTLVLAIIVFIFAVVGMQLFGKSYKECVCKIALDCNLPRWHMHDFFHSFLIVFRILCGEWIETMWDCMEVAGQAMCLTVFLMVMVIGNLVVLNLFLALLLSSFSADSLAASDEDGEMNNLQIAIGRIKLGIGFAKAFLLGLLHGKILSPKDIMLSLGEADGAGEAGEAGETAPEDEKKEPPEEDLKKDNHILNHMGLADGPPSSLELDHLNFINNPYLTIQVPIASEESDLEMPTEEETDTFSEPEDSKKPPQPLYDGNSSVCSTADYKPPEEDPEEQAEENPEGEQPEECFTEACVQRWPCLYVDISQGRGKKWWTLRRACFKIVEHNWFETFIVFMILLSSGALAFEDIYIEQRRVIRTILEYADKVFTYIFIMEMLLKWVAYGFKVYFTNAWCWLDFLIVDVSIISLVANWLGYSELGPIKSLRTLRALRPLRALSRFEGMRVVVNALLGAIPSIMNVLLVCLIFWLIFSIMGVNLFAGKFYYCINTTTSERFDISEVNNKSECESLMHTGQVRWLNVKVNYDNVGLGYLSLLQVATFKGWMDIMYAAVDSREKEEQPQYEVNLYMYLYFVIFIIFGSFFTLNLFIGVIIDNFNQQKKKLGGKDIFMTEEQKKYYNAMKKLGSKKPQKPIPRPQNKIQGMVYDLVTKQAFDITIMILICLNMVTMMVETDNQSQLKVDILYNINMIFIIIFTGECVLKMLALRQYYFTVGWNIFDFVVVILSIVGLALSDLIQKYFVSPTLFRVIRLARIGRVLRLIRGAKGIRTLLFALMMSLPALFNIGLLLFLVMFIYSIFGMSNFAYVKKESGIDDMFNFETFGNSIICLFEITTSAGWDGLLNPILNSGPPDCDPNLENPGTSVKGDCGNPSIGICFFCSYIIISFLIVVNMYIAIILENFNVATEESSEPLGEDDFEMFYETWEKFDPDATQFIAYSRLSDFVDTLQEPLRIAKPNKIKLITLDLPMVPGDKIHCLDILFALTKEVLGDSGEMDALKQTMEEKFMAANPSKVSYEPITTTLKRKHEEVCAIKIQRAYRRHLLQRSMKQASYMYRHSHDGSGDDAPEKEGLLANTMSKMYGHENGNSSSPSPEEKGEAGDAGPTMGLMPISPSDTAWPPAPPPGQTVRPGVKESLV
T1 sequence (Q15858 whole entry): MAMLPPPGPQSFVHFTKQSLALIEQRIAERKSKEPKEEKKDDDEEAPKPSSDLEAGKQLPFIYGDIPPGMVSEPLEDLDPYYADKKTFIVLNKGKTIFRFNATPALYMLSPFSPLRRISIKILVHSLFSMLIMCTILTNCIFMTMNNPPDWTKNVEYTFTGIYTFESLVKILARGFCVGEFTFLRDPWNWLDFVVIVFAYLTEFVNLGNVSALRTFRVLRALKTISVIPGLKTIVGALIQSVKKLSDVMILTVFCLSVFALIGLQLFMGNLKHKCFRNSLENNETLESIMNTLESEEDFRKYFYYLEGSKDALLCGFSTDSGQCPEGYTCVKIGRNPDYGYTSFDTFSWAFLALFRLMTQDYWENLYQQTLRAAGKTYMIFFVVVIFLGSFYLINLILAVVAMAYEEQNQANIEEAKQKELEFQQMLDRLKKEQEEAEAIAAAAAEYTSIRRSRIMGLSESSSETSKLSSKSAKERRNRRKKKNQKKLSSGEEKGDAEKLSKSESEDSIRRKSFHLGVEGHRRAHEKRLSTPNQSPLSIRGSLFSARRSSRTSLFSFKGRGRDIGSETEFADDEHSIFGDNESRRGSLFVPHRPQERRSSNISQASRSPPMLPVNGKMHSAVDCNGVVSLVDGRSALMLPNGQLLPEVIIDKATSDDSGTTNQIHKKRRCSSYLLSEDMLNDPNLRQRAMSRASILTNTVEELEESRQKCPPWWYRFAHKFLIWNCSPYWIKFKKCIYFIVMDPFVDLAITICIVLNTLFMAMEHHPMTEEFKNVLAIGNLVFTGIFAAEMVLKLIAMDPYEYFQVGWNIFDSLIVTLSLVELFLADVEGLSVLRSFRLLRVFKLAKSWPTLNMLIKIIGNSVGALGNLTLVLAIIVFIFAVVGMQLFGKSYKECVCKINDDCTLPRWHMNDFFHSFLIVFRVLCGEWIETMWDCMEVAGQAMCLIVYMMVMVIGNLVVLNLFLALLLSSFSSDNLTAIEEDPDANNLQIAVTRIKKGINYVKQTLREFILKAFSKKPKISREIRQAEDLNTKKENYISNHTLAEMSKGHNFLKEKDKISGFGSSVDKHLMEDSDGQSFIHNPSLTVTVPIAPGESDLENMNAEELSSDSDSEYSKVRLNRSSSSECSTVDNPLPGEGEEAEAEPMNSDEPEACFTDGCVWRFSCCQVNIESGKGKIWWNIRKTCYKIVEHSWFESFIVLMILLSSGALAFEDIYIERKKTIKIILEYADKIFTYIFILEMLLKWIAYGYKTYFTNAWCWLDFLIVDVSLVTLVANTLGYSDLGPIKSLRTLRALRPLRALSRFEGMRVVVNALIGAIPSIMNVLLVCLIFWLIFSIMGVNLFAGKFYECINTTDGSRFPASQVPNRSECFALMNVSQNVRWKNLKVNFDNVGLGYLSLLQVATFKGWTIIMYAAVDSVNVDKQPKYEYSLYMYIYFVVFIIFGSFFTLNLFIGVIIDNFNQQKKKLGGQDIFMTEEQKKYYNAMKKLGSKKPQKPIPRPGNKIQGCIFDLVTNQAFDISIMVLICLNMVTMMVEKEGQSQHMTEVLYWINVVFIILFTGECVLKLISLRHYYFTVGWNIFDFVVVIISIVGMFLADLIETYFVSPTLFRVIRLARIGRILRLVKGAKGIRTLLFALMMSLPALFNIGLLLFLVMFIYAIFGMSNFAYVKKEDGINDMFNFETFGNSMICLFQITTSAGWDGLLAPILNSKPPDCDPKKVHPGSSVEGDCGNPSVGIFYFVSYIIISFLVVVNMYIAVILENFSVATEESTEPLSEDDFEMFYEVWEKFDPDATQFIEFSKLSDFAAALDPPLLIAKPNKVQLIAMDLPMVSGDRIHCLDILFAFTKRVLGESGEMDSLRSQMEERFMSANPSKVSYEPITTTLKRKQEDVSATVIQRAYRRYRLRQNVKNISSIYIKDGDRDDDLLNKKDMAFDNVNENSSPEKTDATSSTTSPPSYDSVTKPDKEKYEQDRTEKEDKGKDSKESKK

| SMILES | IC50 (hNav1.5; IonWorks Quattro, Table 6) | IC50 (hNav1.3; IonWorks Quattro, Table 6) | Nav1.4/Nav1.7 (hNav1.7 [1]) | Nav1.5/Nav1.7 (hNav1.7 [1]) | IC50 (hNav1.4; IonWorks Quattro, Table 6) | Nav1.4/Nav1.7 (hNav1.4; Table 6) | IC50 (hNav1.7 [2]) | IC50 (hNav1.5) | IC50 (hNav1.3) | IC50 (hNav1.4) | Nav1.4/Nav1.7 (hNav1.7 [2]; ratio of IonWorks Quattro IC50 values, Nav1.4 over Nav1.7) | IC50 (hNav1.5; IonWorks Quattro, Table 9) | IC50 (hNav1.3; IonWorks Quattro, Table 9) | IC50 (hNav1.4; IonWorks Quattro, Table 9) | IC50 (hNav1.7 [2]; IonWorks Quattro, […]) |
| --- | --- | --- | --- | --- | --- | --- | --- | --- | --- | --- | --- | --- | --- | --- | --- |
| CC[C@H](C)[C@H](NC(=O)[C@@H](NC(=O)[C@H](CCCCN)NC(=O)[C@H](CCCNC(=N)N)NC(=O)[C@@H]1CSSC[C@@H]2NC(=O)[C@H](C)NC(=O)[C@H](CCCNC(=N)N)NC(=O)[C@H](CCCCN)NC(=O)[C@H](CO)NC(=O)[C@H](CC(=O)O)NC(=O)[C@@H]3CSSC[C@H](NC(=O)[C@H](C)NC(=O)[C@H](CC(C)C)NC(=O)CNC(=O)[C@H](CCC(=O)O)NC(=O)[C@H](CSSC[C@H](NC(=O)[C@@H](N)Cc4ccc(O)cc4)C(=O)N[C@@H](CCC(N)=O)C(=O)N[C@@H](CCCCN)C(=O)N[C@@H](Cc4c[nH]c5ccccc45)C(=O)N[C@@H](CCSC)C(=O)N[C@@H](Cc4c[nH]c5ccccc45)C(=O)N[C@@H]([C@@H](C)O)C(=O)N3)NC2=O)C(=O)N[C@@H](CCCCN)C(=O)N[C@@H](CC(C)C)C(=O)N[C@@H](Cc2c[nH]c3ccccc23)C(=O)N1)[C@@H](C)CC)C(N)=O [compound 17] | > 5 µM | 0.26 µM | 8 | 229 | 0.42 µM | 46 | 0.009 µM | – | – | – | – | – | – | – | – |
| CC[C@H](C)[C@H](NC(=O)[C@@H](NC(=O)[C@H](CCCCN)NC(=O)[C@H](CCCNC(=N)N)NC(=O)[C@@H]1CSSC[C@@H]2NC(=O)[C@H](C)NC(=O)[C@H](CCCNC(=N)N)NC(=O)[C@H](CCCCN)NC(=O)[C@H](CO)NC(=O)[C@H](CC(=O)O)NC(=O)[C@@H]3CSSC[C@H](NC(=O)[C@H](CCCNC(=N)N)NC(=O)[C@H](CC(C)C)NC(=O)CNC(=O)[C@H](CCC(=O)O)NC(=O)[C@H](CSSC[C@H](NC(=O)[C@@H](N)Cc4ccc(O)cc4)C(=O)N[C@@H](CCC(N)=O)C(=O)N[C@@H](CCCCN)C(=O)N[C@@H](Cc4c[nH]c5ccccc45)C(=O)N[C@@H](CCSC)C(=O)N[C@@H](Cc4cccc5ccccc45)C(=O)N[C@@H]([C@@H](C)O)C(=O)N3)NC2=O)C(=O)N[C@@H](CCCCN)C(=O)N[C@@H](CC(C)C)C(=O)N[C@@H](Cc2c[nH]c3ccccc23)C(=O)N1)[C@@H](C)CC)C(N)=O [compound 30] | 3.6 µM | 0.1 µM | 2 | 3550 | 0.12 µM | 9 | 0.013 µM | – | – | – | – | – | – | – | – |
| CC[C@H](C)[C@H](NC(=O)[C@@H](NC(=O)[C@H](CCCCN)NC(=O)[C@H](CCCNC(=N)N)NC(=O)[C@@H]1CSSC[C@@H]2NC(=O)[C@H](C)NC(=O)[C@H](CCCNC(=N)N)NC(=O)[C@H](CCCCN)NC(=O)[C@H](CO)NC(=O)[C@H](CC(=O)O)NC(=O)[C@@H]3CSSC[C@H](NC(=O)[C@H](CCCNC(=N)N)NC(=O)[C@H](CC(C)C)NC(=O)CNC(=O)[C@H](CCC(=O)O)NC(=O)[C@H](CSSC[C@H](NC(=O)[C@@H](N)CCC(=O)O)C(=O)N[C@@H](CCC(N)=O)C(=O)N[C@@H](CCCCN)C(=O)N[C@@H](Cc4c[nH]c5ccccc45)C(=O)N[C@@H](CCSC)C(=O)N[C@@H](Cc4c[nH]c5ccccc45)C(=O)N[C@@H]([C@@H](C)O)C(=O)N3)NC2=O)C(=O)N[C@@H](CCCCN)C(=O)N[C@@H](CC(C)C)C(=O)N[C@@H](Cc2c[nH]c3ccccc23)C(=O)N1)[C@@H](C)CC)C(N)=O [compound 49] | > 5 µM | 0.16 µM | 27 | 21467 | 0.23 µM | 13 | 0.018 µM | – | – | – | – | – | – | – | – |
| CC[C@H](NC(=O)[C@H](CCCCN)NC(=O)[C@H](CCCNC(=N)N)NC(=O)[C@@H]1CSSC[C@@H]2NC(=O)[C@H](C)NC(=O)[C@H](CCCNC(=N)N)NC(=O)[C@H](CCCCN)NC(=O)[C@H](CO)NC(=O)[C@H](CC(=O)O)NC(=O)[C@@H]3CSSC[C@H](NC(=O)[C@H](CCC(=O)O)NC(=O)[C@H](CC(C)C)NC(=O)CNC(=O)[C@H](CCC(=O)O)NC(=O)[C@H](CSSC[C@H](NC(=O)[C@@H](N)Cc4ccc(O)cc4)C(=O)N[C@@H](CCC(N)=O)C(=O)N[C@@H](CCCCN)C(=O)N[C@@H](Cc4c[nH]c5ccccc45)C(=O)N[C@@H](CCSC)C(=O)N[C@@H](Cc4c[nH]c5ccccc45)C(=O)N[C@@H]([C@@H](C)O)C(=O)N3)NC2=O)C(=O)N[C@@H](CCCCN)C(=O)N[C@@H](CC(C)C)C(=O)N[C@@H](Cc2c[nH]c3ccccc23)C(=O)N1)C(=O)N[C@H](C(N)=O)[C@@H](C)CC [compound 130] | – | – | – | – | – | – | 0.17 µM and 0.21 µM | 8.2 µM and 11.1 µM | > 5 µM | > 5 µM | 29 and 24 | – | – | – | – |
| CCCC[C@@H]1NC(=O)[C@H](Cc2cn(CCCOCCOCCOCCOCCOCCOCCOCCOCCOCCOCCN)nn2)NC(=O)[C@H](CCCCN)NC(=O)[C@H](CCC(N)=O)NC(=O)[C@@H](NC(=O)[C@@H](N)Cc2ccc(O)cc2)CSSC[C@@H]2NC(=O)[C@@H]3CSSC[C@@H](C(=O)N[C@@H](CCCNC(=N)N)C(=O)N[C@@H](CCCCN)C(=O)N[C@H](C(=O)N[C@H](C(N)=O)[C@@H](C)CC)[C@@H](C)CC)NC(=O)[C@H](Cc4c[nH]c5ccccc45)NC(=O)[C@H](CC(C)C)NC(=O)[C@H](CCCCN)NC(=O)[C@H](CSSC[C@H](NC(=O)[C@H]([C@@H](C)O)NC(=O)[C@H](Cc4c[nH]c5ccccc45)NC1=O)C(=O)N[C@@H](CC(=O)O)C(=O)N[C@@H](CO)C(=O)N[C@@H](CCCCN)C(=O)N[C@@H](CCCNC(=N)N)C(=O)N[C@@H](C)C(=O)N3)NC(=O)[C@H](CCCNC(=N)N)NC(=O)[C@H](CC(C)C)NC(=O)CNC(=O)[C@H](CCC(=O)O)NC2=O [compound 251] | – | – | – | – | – | – | – | – | – | – | – | > 7 µM | > 7 µM | > 7 µM | > 7 µM |
| CCCC[C@@H]1NC(=O)[C@H](Cc2c[nH]c3ccccc23)NC(=O)[C@H](CCCCN)NC(=O)[C@H](CCC(N)=O)NC(=O)[C@@H](NC(=O)[C@@H](N)Cc2ccc(O)cc2)CSSC[C@@H]2NC(=O)[C@@H]3CSSC[C@@H](C(=O)N[C@@H](CCCNC(=N)N)C(=O)N[C@@H](CCCCN)C(=O)N[C@H](C(=O)N[C@H](C(N)=O)[C@@H](C)CC)[C@@H](C)CC)NC(=O)[C@H](Cc4c[nH]c5ccccc45)NC(=O)[C@H](CC(C)C)NC(=O)[C@H](CCCCN)NC(=O)[C@H](CSSC[C@H](NC(=O)[C@H]([C@@H](C)O)NC(=O)[C@H](Cc4cn(CCCOCCOCCOCCOCCOCCOCCOCCOCCOCCOCCN)nn4)NC1=O)C(=O)N[C@@H](CC(=O)O)C(=O)N[C@@H](CO)C(=O)N[C@@H](CCCCN)C(=O)N[C@@H](CCCNC(=N)N)C(=O)N[C@@H](C)C(=O)N3)NC(=O)[C@H](CCCNC(=N)N)NC(=O)[C@H](CC(C)C)NC(=O)CNC(=O)[C@H](CCC(=O)O)NC2=O [compound 253] | – | – | – | – | – | – | – | – | – | – | – | > 7 µM | > 7 µM | > 7 µM | 4.6 µM |
| CCCC[C@@H]1NC(=O)[C@H](Cc2c[nH]c3ccccc23)NC(=O)[C@H](CCCCN)NC(=O)[C@H](CCC(N)=O)NC(=O)[C@@H](NC(=O)[C@@H](N)Cc2ccc(O)cc2)CSSC[C@@H]2NC(=O)[C@@H]3CSSC[C@@H](C(=O)N[C@@H](CCCNC(=N)N)C(=O)N[C@@H](CCCCN)C(=O)N[C@H](C(=O)N[C@H](C(N)=O)[C@@H](C)CC)[C@@H](C)CC)NC(=O)[C@H](Cc4c[nH]c5ccccc45)NC(=O)[C@H](CC(C)C)NC(=O)[C@H](Cc4cn(CCCOCCOCCOCCOCCOCCOCCOCCOCCOCCOCCN)nn4)NC(=O)[C@H](CSSC[C@H](NC(=O)[C@H]([C@@H](C)O)NC(=O)[C@H](Cc4c[nH]c5ccccc45)NC1=O)C(=O)N[C@@H](CC(=O)O)C(=O)N[C@@H](CO)C(=O)N[C@@H](CCCCN)C(=O)N[C@@H](CCCNC(=N)N)C(=O)N[C@@H](C)C(=O)N3)NC(=O)[C@H](CCCNC(=N)N)NC(=O)[C@H](CC(C)C)NC(=O)CNC(=O)[C@H](CCC(=O)O)NC2=O [compound 264] | – | – | – | – | – | – | – | – | – | – | – | > 7 µM | > 7 µM | > 7 µM | > 7 µM |
| CCCC[C@@H]1NC(=O)[C@H](Cc2c[nH]c3ccccc23)NC(=O)[C@H](CCCCN)NC(=O)[C@H](CCC(N)=O)NC(=O)[C@@H](NC(=O)[C@@H](N)Cc2ccc(O)cc2)CSSC[C@@H]2NC(=O)[C@@H]3CSSC[C@@H](C(=O)N[C@@H](CCCNC(=N)N)C(=O)N[C@@H](CCCCN)C(=O)N[C@H](C(=O)N[C@H](C(N)=O)[C@@H](C)CC)[C@@H](C)CC)NC(=O)[C@H](Cc4c[nH]c5ccccc45)NC(=O)[C@H](Cc4cn(CCCOCCOCCOCCOCCOCCOCCOCCOCCOCCOCCN)nn4)NC(=O)[C@H](CCCCN)NC(=O)[C@H](CSSC[C@H](NC(=O)[C@H]([C@@H](C)O)NC(=O)[C@H](Cc4c[nH]c5ccccc45)NC1=O)C(=O)N[C@@H](CC(=O)O)C(=O)N[C@@H](CO)C(=O)N[C@@H](CCCCN)C(=O)N[C@@H](CCCNC(=N)N)C(=O)N[C@@H](C)C(=O)N3)NC(=O)[C@H](CCCNC(=N)N)NC(=O)[C@H](CC(C)C)NC(=O)CNC(=O)[C@H](CCC(=O)O)NC2=O [compound 265] | – | – | – | – | – | – | – | – | – | – | – | > 7 µM | 5.6 µM | > 7 µM | 4.8 µM |
